Results reported in patent US6849612B2, “Oligonucleotide modulation of cell adhesion” (ISIS Pharmaceuticals, Inc., priority 1993, dated 2005).
Strand notation (5' to 3'): a small letter for the sugar, then the base; units joined by * are phosphorothioate-linked, units joined directly phosphodiester-linked; [ ] holds rarer units or linkages, { } end groups; capitals alone tell only the bases. d = 2'-deoxy (DNA)

Key:
[1] = tested on: adherence of HL-60 cells to human umbilical vein endothelial cells; assay: Cell adherence assay: DMSO differentiated HL-60 cells to TNF treated HUVEC; format: cell-based
Description: Target cells are grown as a monolayer in a multiwell plate, treated with oligonucleotide followed by cytokine. The adhering cells are then added to the monolayer cells and incubated for 30 to 60 minutes at 37° C. and washed to remove nonadhering cells. Cells adhering to the monolayer may be determined either by directly counting the adhering cells or prelabeling the cells with a radioisotope such as ^51Cr and quantitating the radioactivity associated with the monolayer as described. Dustin and Springer, J. Cell Biol. 1988, 107, 321-331. Antisense oligonucleotides may target either ICAM-1, VCAM-1 or ELAM-1 in the assay.
An example of the effects of antisense oligonucleotides targeting ICAM-1 mRNA on the adherence of DMSO differentiated HL-60 cells to tumor necrosis factor treated human umbilical vein endothelial cells is shown in FIG. 7. Human umbilical vein endothelial cells were grown to 80% confluence in 12 well plates. The cells were treated with 2 μM oligonucleotide diluted in Opti-MEM containing 8 μM DOTMA for 4 hours at 37° C. The medium was removed and replaced with fresh endothelial cell growth medium (EGM-UV) containing 2 μM of the indicated oligonucleotide and incubated 4 hours at 37° C. Tumor necrosis factor, 1 ng/ml, was added to cells as indicated and cells incubated for an additional 19 hours. The cells were washed once with EGM-UV and 1.6×10^6 HL-60 cells differentiated for 4 days with 1.3% DMSO added. The cells were allowed to attach for 1 hour at 37° C. and gently washed 4 times with Dulbecco's phosphate-buffered saline (D-PBS) warmed to 37° C. Adherent cells were detached from the monolayer by addition of 0.25 ml of cold (4EC) phosphate-buffered saline containing 5 mM EDTA and incubated on ice for 5 minutes. The number of cells removed by treatment with EDTA was determined by counting with a hemocytometer. Endothelial cells detached from the monolayer by EDTA treatment could easily be distinguished from HL-60 cells by morphological differences. In the absence of tumor necrosis factor, 3% of the HL-60 cells bound to the endothelial cells. Treatment of the endothelial cell monolayer with 1 ng/ml tumor necrosis factor increased the number of adhering cells to 59% of total cells added (FIG. 7).
Human umbilical vein endothelial (HUVEC) cells were grown and treated with oligonucleotides as in Example 4. Cells were treated with either ISIS 1939, ISIS 1940, or the control oligonucleotide ISIS 1821 for 4 hours, then stimulated with TNF-α for 20 hours. Basal HUVEC minimally bound HL-60 cells, while TNF-stimulated HUVEC bound 19% of the total cells added. Pretreatment of the HUVEC monolayer with 0.3 ìM ISIS 1939 reduced the adherence of HL-60 cells to basal levels, as shown in FIG. 11.

[2] = tested on: ICAM-1; assay: ELISA of ICAM-1 cell surface expression in C8161 human melanoma cells; format: cell-based; conditions: 15 μg/ml Lipofectin, 5 ng/ml TNF-α 16 hours
Description: ICAM-1 expression on the cell surface was measured by ELISA. Cells were treated with increasing concentrations of antisense oligonucleotides in the presence of 15 μg/ml Lipofectin for 4 hours at 37° C. ICAM-1 expression was induced by incubation with 5 ng/ml TNF-α for 16 hours. Cells were washed 3× in DPBS and fixed for 20 minutes in 2% formaldehyde. Cells were washed in DPBS, blocked with 2% BSA for 1 hour at 37° C. and incubated with ICAM-1 monoclonal antibody 84H10 (AMAC, Inc., Westbrook, Me.). Detection of bound antibody was determined by incubation with a biotinylated goat anti-mouse IgG followed by incubation with […] streptavidin and developed with chlorophenol red-β-D-galactopyranoside and quantified by absorbance at 575 nm. ICAM-1 mRNA levels were measured by Northern blot analysis.
The data were expressed as percentage of control activity, calculated as follows: (ICAM-1 expression for oligonucleotide-treated, cytokine-induced cells)−(basal ICAM-1 expression)/(ICAM-1 cytokine-induced expression)−(basal ICAM-1 expression)×100.

[3] = tested on: ICAM-1; assay: Immunoprecipitation of 35S-labelled ICAM-1 from A549 cells; format: cell-based, human; conditions: 1 μM oligonucleotide
Description: The specificity of the antisense oligonucleotides ISIS 1570 and ISIS 1939 for ICAM-1 was evaluated by immunoprecipitation of ^35S-labelled proteins. A549 cells were grown to confluence in 25 cm^2 tissue culture flasks and treated with antisense oligonucleotides as described in Example 4. The cells were stimulated with interleukin-1β for 14 hours, washed with methionine-free DMEM plus 10% dialyzed fetal calf serum, and incubated for 1 hour in methionine-free medium containing 10% dialyzed fetal calf serum, 1 μM oligonucleotide and interleukin-1β as indicated. ^35S-Methionine/cysteine mixture (Tran^35S-label, purchased from ICN, Costa Mesa, Calif.) was added to the cells to an activity of 100 μCi/ml and the cells were incubated an additional 2 hours. Cellular proteins were extracted by incubation with 50 mM Tris-HCl pH 8.0, 150 mM NaCl, 1.0% NP-40, 0.5% deoxycholate and 2 mM EDTA (0.5 ml per well) at 4° C. for 30 minutes. The extracts were clarified by centrifugation at 18,000×g for 20 minutes. The supernatants were preadsorbed with 200 μl protein G-Sepharose beads (Bethesda Research Labs, Bethesda Md.) for 2 hours at 4° C., divided equally and incubated with either 5 μg ICAM-1 monoclonal antibody (purchased from AMAC Inc., Westbrook Me.) or HLA-A, B antibody (W6/32, produced by murine hybridoma cells obtained from the American Type Culture Collection, Bethesda, Md.) for 15 hours at 4° C. Immune complexes were trapped by incubation with 200 μl of a 50% suspension of protein G-Sepharose (v/v) for 2 hours at 4° C., washed 5 times with lysis buffer and resolved on an SDS-polyacrylamide gel. Proteins were detected by autoradiography.

ISIS 1570: phosphorothioate, human ICAM-1 AUG Codon (64-81), SEQ ID NO 1, TGGGAGCCATAGCGAGGC (antisense dT*dG*dG*dG*dA*dG*dC*dC*dA*dT*dA*dG*dC*dG*dA*dG*dG*dC)
HL-60 cells adhering, % of total cells added ([1]; 2 μM oligonucleotide, HUVEC treated with 1 ng/ml tumor necrosis factor, control 59%): 17% | number of HL-60 cells adhering to the monolayer ([1]; 2 μM oligonucleotide, absence of tumor necrosis factor treatment): did not change the number of cells adhering | cell surface expression of ICAM-1 [2]: decreased cell surface expression of ICAM-1 | decrease of ICAM-1 synthesis ([3]; 5 units/ml interleukin-1β): approximately 50%

ISIS 1939: P=S, human ICAM-1 3′-Untranslated (1952-1971), SEQ ID NO 15, CCCCCACCACTTCCCCTCTC (antisense dC*dC*dC*dC*dC*dA*dC*dC*dA*dC*dT*dT*dC*dC*dC*dC*dT*dC*dT*dC)
adherence of HL-60 cells ([1]; 0.3 μM oligonucleotide, TNF-α stimulated HUVEC (control bound 19%)): basal levels | cell surface expression of ICAM-1 [2]: decreased cell surface expression of ICAM-1 | ICAM-1 synthesis ([3]; interleukin-1β): near background
